Experimental data published in publication PMC11926788, “Effect of SSR504734, a Selective Glycine Transporter Type 1 Inhibitor, on Seizure Thresholds, Neurotransmitter Levels, and Inflammatory Markers in Mice” (ACS Chemical Neuroscience, 2025).
pIC50: −log10 of the molar value. Counter-ions that a name gives are not always drawn.

Test system: neuroblastoma SH-SY5Y cells
Assay: Neurotoxicity, SH-SY5Y cell viability
Format: cell-based
Experimental: A series of in vitro ADME-Tox tests were performed for SSR504734 in order to estimate its drugability. The ADME-Tox parameters including permeability, plasma protein binding, metabolic stability, neurotoxicity, and hepatotoxicity were carried out as described previously.[31],[32] The ability of SSR504734 to penetrate through the biological membrane by passive diffusion was estimated by the Gentest Precoated PAMPA Plate System (Corning, Tewksbury, MA) and expressed as the permeability coefficient (Pe). The protein binding analysis was performed by using the commercial TRANSIL^XL PPB test, which mimics in vitro physiological plasma conditions where human serum albumin (HAS) and alpha-1-acid glycoprotein AGP are present in a 24:1 ratio. The human metabolism of SSR504734 was studied using human liver microsomes (HLMs) provided by Sigma-Aldrich. The hepatotoxicity and neurotoxicity were estimated in cellular models with the use of hepatoma HepG2 and neuroblastoma SH-SY5Y cell lines to perform the preliminary safety tests. The cells were incubated with SSR504734 at the concentration range of 0.1–100 μM. 1 μM cytostatic drug doxorubicin (DX) was used as the reference.
Figure 8 Effect of cytostatic drug doxorubicin (DX) and SSR504734 on (A) hepatoma HepG2 and (B) neuroblastoma SH-SY5Y cell lines viability after 72 h of incubation at 37 °C, 5% CO2. Data are expressed as means ± SD. Statistical analysis: ****p < 0.0001 vs negative control −1% DMSO in growth media (one-way ANOVA, followed by Dunnett’s post hoc test).
Figure S8. The effect of cytostatic drug doxorubicin and SSR504734 on (A) hepatoma
HepG2 and (B) neuroblastoma SH-SY5Y cell line viability after 72 h of incubation at 37 °C,
5% CO2. The IC50 values were calculated by GraphPad Prism 8.0.
(1 picture or pasted object on this page, not shown here)

O=C(NC(c1ccccc1)C1CCCCN1)c1cccc(C(F)(F)F)c1Cl [SSR504734, 2-chloro-N-[(S)-phenyl[(2S)-piperidin-2-yl]methyl]-3-trifluoromethyl benzamide monohydrochloride]
completely safe dose in the SH-SY5Y model (72 h): 25 µM | pIC50 (Homo sapiens, SH-SY5Y, 72 h of incubation): 4.42
